From US20070128217A1 (priority 2003, published 2007)

Columns and labels:
[1] = system: rabbit serum obtained by immunizing a rabbit with the SARS-CoV strain Frankfurt 1; type: binding; parameters: Binding of a rabbit serum to linear peptides / Binding of a rabbit serum to looped peptides / Rabbit serum linear peptides / Rabbit serum looped peptides / Binding of a rabbit serum to linear peptides of protein N of SARS-CoV Urbani (Rabbit serum linear peptides) / Binding of a rabbit serum to looped/cyclic peptides of protein N of SARS-CoV Urbani (Rabbit serum looped peptides): unit not given here
[2] = system: control sera (pooled serum of ten healthy LUMC hospital workers; commercial negative donor pooled serum from the Dutch bloodbank); type: binding, human; parameters: Binding of Control serum LUMC to linear peptides / Binding of Control serum Blood-bank to linear peptides / Binding of Control serum LUMC to looped peptides / Binding of Control Serum Blood-Bank to Looped peptides / Binding of Control serum LUMC to linear peptides of the protein M of SARS-CoV Urbani / Binding of Control serum Blood-bank to linear peptides of the protein M of SARS-CoV Urbani / Binding of Control serum LUMC to looped peptides of the protein M of SARS-CoV Urbani / Binding of Control Serum Blood-Bank to Looped peptides of the protein M of SARS-CoV Urbani: unit not given here
[3] = system: antibodies in sera from SARS patients (sera 1a, 1b, 2, 6, 37, 62, London, SARS-yellow, SARS-green); type: binding, human; parameters: Binding of serum 6 to linear peptides of protein X1 of SARS-CoV Urbani / Binding of serum 37 to linear peptides of protein X1 of SARS-CoV Urbani / Binding of serum 6 to looped/cyclic peptide (PEPSCAN-ELISA) / Binding of serum 37 to looped/cyclic peptide (PEPSCAN-ELISA) / Binding of serum 37 to looped/cyclic peptides of protein X1 of SARS-CoV Urbani / Binding of serum 6 to linear peptides of protein X2 / Binding of serum 37 to linear peptides of protein X2 / Binding of serum 37 to looped/cyclic peptides of protein X2 of SARS-CoV Urbani / Binding of serum 6 to linear peptides of protein M of SARS-CoV Urbani / Binding of serum 37 to linear peptides of protein M of SARS-CoV Urbani / Binding of serum 6 to looped/cyclic peptides of protein M of SARS-CoV Urbani / Binding of serum 37 to looped/cyclic peptides of protein M of SARS-CoV Urbani / Binding of serum 6 to linear peptides of protein X3 of SARS-CoV Urbani / Binding of serum 37 to linear peptides of protein X3 of SARS-CoV Urbani / Binding of serum 37 to looped/cyclic peptides of protein X3 of SARS-CoV Urbani / Binding of serum 6 to linear peptides of protein X4 of SARS-CoV Urbani / Binding of serum 37 to linear peptides of protein X4 of SARS-CoV Urbani / Binding of serum 37 to looped/cyclic peptides of protein X4 of SARS-CoV Urbani / Binding of serum 6 to linear peptides of protein X5 of SARS-CoV Urbani / Binding of serum 37 to linear peptides of protein X5 of SARS-CoV Urbani / Binding of serum 37 to looped/cyclic peptides of protein X5 of SARS-CoV Urbani / Binding of serum 6 to linear peptides of protein N of SARS-CoV Urbani / Binding of serum 37 to linear peptides of protein N of SARS-CoV Urbani / Binding of serum 6 to linear peptide (PEPSCAN-ELISA) / Binding of serum 1a to looped/cyclic peptides of protein N of SARS-CoV Urbani / Binding of serum 1b to looped/cyclic peptides of protein N of SARS-CoV Urbani / Binding of serum 2 to looped/cyclic peptides of protein N of SARS-CoV Urbani / Binding of serum 6 to looped/cyclic peptides of protein N of SARS-CoV Urbani / Binding of serum 37 to looped/cyclic peptides of protein N of SARS-CoV Urbani / Binding of serum 62 to looped/cyclic peptides of protein N of SARS-CoV Urbani / Binding of serum London to looped/cyclic peptides of protein N of SARS-CoV Urbani / Binding of serum SARS-green to looped/cyclic peptides of protein N of SARS-CoV Urbani: unit not given here

With LWPVTLACFVLAAVY the “Rabbit serum linear peptides” value [1] was 0.4, the “Rabbit serum looped peptides” value [1] was 0.4 and the “Binding of Control Serum Blood-Bank to Looped peptides of the protein M of SARS-CoV Urbani” value [2] was 0.6. For the same sequence, the “Binding of Control serum Blood-bank to linear peptides of the protein M of SARS-CoV Urbani” value [2] was 0.6, the “Binding of Control serum LUMC to linear peptides of the protein M of SARS-CoV Urbani” value [2] was 0.4 and the “Binding of Control serum LUMC to looped peptides of the protein M of SARS-CoV Urbani” value [2] was 0.7. The “Binding of serum 1a to linear peptides of protein M of SARS-CoV Urbani” value [3] was 0.7, the “Binding of serum 1a to looped/cyclic peptides of protein M of SARS-CoV Urbani” value [3] was 0.7 and the “Binding of serum 1b to linear peptides of protein M of SARS-CoV Urbani” value [3] was 0.6. The “Binding of serum 1b to looped/cyclic peptides of protein M of SARS-CoV Urbani” value [3] was 0.5, the “Binding of serum 2 to linear peptides of protein M of SARS-CoV Urbani” value [3] was 0.6 and the “Binding of serum 2 to looped/cyclic peptides of protein M of SARS-CoV Urbani” value [3] was 0.7. The “Binding of serum 6 to linear peptides of protein M of SARS-CoV Urbani” value [3] was 0.3, the “Binding of serum 6 to looped/cyclic peptides of protein M of SARS-CoV Urbani” value [3] was 0.6 and the “Binding of serum 37 to linear peptides of protein M of SARS-CoV Urbani” value [3] was 0.7. The “Binding of serum 37 to looped/cyclic peptides of protein M of SARS-CoV Urbani” value [3] was 0.7, the “Binding of serum 62 to linear peptides of protein M of SARS-CoV Urbani” value [3] was 0.8 and the “Binding of serum 62 to looped/cyclic peptides of protein M of SARS-CoV Urbani” value [3] was 0.6. For the same sequence, the “Binding of serum London to linear peptides of protein M of SARS-CoV Urbani” value [3] was 0.3, the “Binding of serum London to looped/cyclic peptides of protein M of SARS-CoV Urbani” value [3] was 0.2 and the “Binding of serum SARS-green to linear peptides of protein M of SARS-CoV Urbani” value [3] was 0.2. The “Binding of serum SARS-green to looped/cyclic peptides of protein M of SARS-CoV Urbani” value [3] was 0.2, the “Binding of serum SARS-yellow to linear peptides of protein M of SARS-CoV Urbani” value [3] was 0.0 and the “Binding of serum SARS-yellow to looped/cyclic peptides of protein M of SARS-CoV Urbani” value [3] was 0.5.

With LYSPLFLIVAALVFL the “Rabbit serum linear peptides” value [1] was 0.4, the “Rabbit serum looped peptides” value [1] was 0.3 and the “Binding of Control Serum Blood-Bank to Looped peptides” value [2] was 0.6. The “Binding of Control serum Blood-bank to linear peptides” value [2] was 0.5, the “Binding of Control serum LUMC to linear peptides” value [2] was 0.4 and the “Binding of Control serum LUMC to looped peptides” value [2] was 0.6. For the same sequence, the “Binding of serum 1a to linear peptides of protein X4 of SARS-CoV Urbani” value [3] was 0.6, the “Binding of serum 1a to looped/cyclic peptides of protein X4 of SARS-CoV Urbani” value [3] was 0.5 and the “Binding of serum 1b to linear peptides of protein X4 of SARS-CoV Urbani” value [3] was 0.4. The “Binding of serum 1b to looped/cyclic peptides of protein X4 of SARS-CoV Urbani” value [3] was 0.3, the “Binding of serum 2 to linear peptides of protein X4 of SARS-CoV Urbani” value [3] was 0.4 and the “Binding of serum 2 to looped/cyclic peptides of protein X4 of SARS-CoV Urbani” value [3] was 0.4. For the same sequence, the “Binding of serum 6 to linear peptides of protein X4 of SARS-CoV Urbani” value [3] was 0.5, the “Binding of serum 6 to looped/cyclic peptides of protein X4 of SARS-CoV Urbani” value [3] was 0.4 and the “Binding of serum 37 to linear peptides of protein X4 of SARS-CoV Urbani” value [3] was 0.6. For the same sequence, the “Binding of serum 37 to looped/cyclic peptides of protein X4 of SARS-CoV Urbani” value [3] was 0.5, the “Binding of serum 62 to linear peptides of protein X4 of SARS-CoV Urbani” value [3] was 0.6 and the “Binding of serum 62 to looped/cyclic peptides of protein X4 of SARS-CoV Urbani” value [3] was 0.5. For the same sequence, the “Binding of serum London to linear peptides of protein X4 of SARS-CoV Urbani” value [3] was 0.6, the “Binding of serum London to looped/cyclic peptides of protein X4 of SARS-CoV Urbani” value [3] was 0.2 and the “Binding of serum SARS-green to linear peptides of protein X4 of SARS-CoV Urbani” value [3] was 0.5. For the same sequence, the “Binding of serum SARS-green to looped/cyclic peptides of protein X4 of SARS-CoV Urbani” value [3] was 0.4, the “Binding of serum SARS-yellow to linear peptides of protein X4 of SARS-CoV Urbani” value [3] was 0.2 and the “Binding of serum SARS-yellow to looped/cyclic peptides of protein X4 of SARS-CoV Urbani” value [3] was 0.4.

In the case of MACIVGLMWLSYFVA, the “Rabbit serum linear peptides” value [1] is reported as 0.2, the “Rabbit serum looped peptides” value [1] is reported as 0.0 and the “Binding of Control Serum Blood-Bank to Looped peptides of the protein M of SARS-CoV Urbani” value [2] is reported as 0.4. The “Binding of Control serum Blood-bank to linear peptides of the protein M of SARS-CoV Urbani” value [2] was 0.5, the “Binding of Control serum LUMC to linear peptides of the protein M of SARS-CoV Urbani” value [2] was 0.5 and the “Binding of Control serum LUMC to looped peptides of the protein M of SARS-CoV Urbani” value [2] was 0.6. The “Binding of serum 1a to linear peptides of protein M of SARS-CoV Urbani” value [3] was 0.7, the “Binding of serum 1a to looped/cyclic peptides of protein M of SARS-CoV Urbani” value [3] was 0.7 and the “Binding of serum 1b to linear peptides of protein M of SARS-CoV Urbani” value [3] was 0.5. The “Binding of serum 1b to looped/cyclic peptides of protein M of SARS-CoV Urbani” value [3] was 0.4, the “Binding of serum 2 to linear peptides of protein M of SARS-CoV Urbani” value [3] was 0.4 and the “Binding of serum 2 to looped/cyclic peptides of protein M of SARS-CoV Urbani” value [3] was 0.4. For the same sequence, the “Binding of serum 6 to linear peptides of protein M of SARS-CoV Urbani” value [3] was 0.3, the “Binding of serum 6 to looped/cyclic peptides of protein M of SARS-CoV Urbani” value [3] was 0.5 and the “Binding of serum 37 to linear peptides of protein M of SARS-CoV Urbani” value [3] was 0.4. The “Binding of serum 37 to looped/cyclic peptides of protein M of SARS-CoV Urbani” value [3] was 0.4, the “Binding of serum 62 to linear peptides of protein M of SARS-CoV Urbani” value [3] was 0.4 and the “Binding of serum 62 to looped/cyclic peptides of protein M of SARS-CoV Urbani” value [3] was 0.5. For the same sequence, the “Binding of serum London to linear peptides of protein M of SARS-CoV Urbani” value [3] was 0.3, the “Binding of serum London to looped/cyclic peptides of protein M of SARS-CoV Urbani” value [3] was 0.2 and the “Binding of serum SARS-green to linear peptides of protein M of SARS-CoV Urbani” value [3] was 0.3. For the same sequence, the “Binding of serum SARS-green to looped/cyclic peptides of protein M of SARS-CoV Urbani” value [3] was 0.2, the “Binding of serum SARS-yellow to linear peptides of protein M of SARS-CoV Urbani” value [3] was 0.2 and the “Binding of serum SARS-yellow to looped/cyclic peptides of protein M of SARS-CoV Urbani” value [3] was 0.4.
